Assay results taken from paper PMC10914731, “Homo-BacPROTAC-induced degradation of ClpC1 as a strategy against drug-resistant mycobacteria” (Nature Communications, 2024).
Values after ≈ are worked out from the molar mass of the structure shown. Values joined by “and” are separate entries in the source; they are usually repeats but may differ in a detail not shown here. Equal entries are not always repeated. Where two headings read alike, the source gives them in different places.

Assays:
[1] = test system: Mtb H37Rv in THP-1 macrophages; experiment: Intracellular MIC assay in THP-1 macrophages; assay type: cell-based, Mycobacterium tuberculosis; set-up: Emax: unit not given here
Msm 607 = experiment: microbe, parasite or virus in culture; assay type: cell-based
[2] = molecular target: ClpC1 NTD protein (M. tuberculosis) (Mycobacterium tuberculosis, UniProt P9WPC9); experiment: biochemical; assay type: binding; conditions: for Kd: SPR
[3] = test system: Mtb (katG del) ATCC 35822; experiment: microbe, parasite or virus in culture; assay type: cell-based
[4] = assay type: in vitro ADME, Rat; conditions: rat, microsomes, pH 7.5
Procedure, shortened: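 Compound at 1 µmol/l incubated with 0.5 mg/ml liver microsomes in 100 mM Tris-HCl pH 7.5, 6.5 mM MgCl2, 1 mM NADPH, 37 °C; acetonitrile-quenched at multiple time points, measured by HPLC-MS/MS. First-order half-lives converted to clearance as %Qh via well-stirred liver model.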

Acinetobacter baumannii = experiment: MIC ESKAPES panel, Acinetobacter baumannii; assay type: cell-based
Procedure, shortened: (§1)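 CLSI broth microdilution was run in Mueller Hinton broth with an inoculum of 3–7 × 10^5 cfu/ml at 37 °C. Turbidity was read on day 2; clear wells indicated growth inhibition.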

in vivo = assay type: in vivo, BALB/cAnNCrl mice; conditions: male, BALB/cAnNCrl, mouse, in vivo, po
Procedure, shortened: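 Male BALB/cAnNCrl mice (n = 3) were dosed 1 mg/kg iv or 30 mg/kg po from a 3.0 mg/mL suspension in 20% kleptose. Blood was sampled to 24 h, and plasma was quantified by UPLC-MS/MS after ACN precipitation. chromLogD7.5 came from C18 retention calibrated against n-alkan-2-ones.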

[5] = test system: M. tuberculosis H37Rv (ATCC 27294); experiment: microbe, parasite or virus in culture; assay type: cell-based
Salmonella typhimurium = experiment: MIC ESKAPES panel, Salmonella typhimurium; assay type: cell-based
Procedure, shortened: as §1

Chain of ClpC1 NTD protein (M. tuberculosis) (P9WPC9 1-156, looked up, natural form): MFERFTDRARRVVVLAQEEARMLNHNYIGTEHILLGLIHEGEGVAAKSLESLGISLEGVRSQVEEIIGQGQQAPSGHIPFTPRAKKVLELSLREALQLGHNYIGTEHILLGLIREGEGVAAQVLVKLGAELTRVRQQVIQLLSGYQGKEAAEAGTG

SMILES: COC(c1ccccc1)C1NC(=O)C(C)NC(=O)C(CC(C)CO)N(C)C(=O)C(Cc2cn(C)c3ccccc23)NC(=O)C(Cc2cn(CCCCCn3cc(CC4NC(=O)C(CC(C)C)N(C)C(=O)C(C(C)C)NC(=O)C(C(OC)c5ccccc5)NC(=O)C(C)NC(=O)C(CC(C)CO)N(C)C(=O)C(Cc5cn(C)c6ccccc56)NC4=O)nn3)nn2)NC(=O)C(CC(C)C)N(C)C(=O)C(C(C)C)NC1=O (stereo not shown) [Compound 12]
- Emax [1]: 0.28
- MIC (Msm 607; Mycolicibacterium smegmatis, 607, read-out: MIC Msm 607): 0.9 ± 0.3 µM (≈ 1.78 µg/mL)
- MIC (Msm 607; Mycolicibacterium smegmatis, 607, read-out: MIC Msm #607, individual example (Supplementary Table 11)): 0.8 µM and 1.5 µg/mL
- MIC (Msm 607; Mycolicibacterium smegmatis, 607, read-out: Msm 607 MIC, single determinations): 1.56 µM (≈ 3.09 µg/mL)
- MIC (Msm 607; Mycolicibacterium smegmatis, ATCC607, Set-1, read-out: MIC (Msm ATCC607) Set-1): 0.78 µM and 1.54 µg/mL
- MIC (Msm 607; Mycolicibacterium smegmatis, ATCC607, Set-2, read-out: MIC (Msm ATCC607) Set-2): 1.54 µM and 3.06 µg/mL
- MIC (Msm 607; Mycolicibacterium smegmatis, ATCC607, Set-3, done at a different day than Set 1 and Set 2, read-out: MIC (Msm ATCC607) Set-3): 0.78 µM and 1.54 µg/mL
- MIC (Msm 607; Mycolicibacterium smegmatis, ATCC607, mean of 3 experiments ± SD, read-out: MIC including standard deviations (Msm ATCC607)): 1.03 µM and 2.04 µg/mL
- Msm 607 MIC (Msm 607; single determinations, listed as 12 (UdSBI-4377)): 0.780 µM
- Kd ([2]; individual measurements (source data), listed as 12 (UdSBI-4377), read-out: KD ClpC1-NTD): 0.169 nM and 0.284 nM and 0.283 nM and 0.407 nM and 0.412 nM and 0.327 nM and 0.181 nM and 0.203 nM and 0.279 nM
- Kd ([2]; read-out: ClpC1-NTD KD Mean ± SD): 0.28 ± 0.08 nM
- improvement of SPR KD to ClpC1-NTD, dimer versus monomer (factor) ([2]; monomeric 10 to dimeric 12 / Homo-BacPROTACs versus monomeric compounds): 10
- MIC ([3]; M. tuberculosis ATCC 35822, single well replicates): 0.098 µM (≈ 0.194 µg/mL)
- MIC ([3]; Mycobacterium tuberculosis, ATCC35822, M. tuberculosis ATCC 35822, single well replicates): 0.098 µM (≈ 0.194 µg/mL)
- MIC ([3]; Mycobacterium tuberculosis, ATCC35822, Mtb (katG del) ATCC 35822, mean ± SD, n = 3 well replicates): 0.1 µM (≈ 0.198 µg/mL)
- Microsomal Stability Rat [4]: < 23 %Qh
- Microsomal Stability Rat QH [4]: <23.1%
- MIC (Acinetobacter baumannii; Gram negative, n = 3 well replicates, read-out: MIC Acinetobacter baumanii): > 50 µM
- MIC (Acinetobacter baumannii; Gram-Negative Bacteria, replicates 1-3, read-out: MIC Acinetobacter baumannii): > 50 µM and > 99 µg/mL
- AUC0-inf/Dose (in vivo): 62.6 h*nM/nmol/kg
- AUC0-t/Dose (in vivo): 45.5 h*nM/nmol/kg
- BA (in vivo): 0.7%
- Cmax/Dose (in vivo): 2.56 nM/nmol/kg
- MIC ([5]; M. tuberculosis H37Rv 27294, single well replicates, read-out: MIC): 0.098 µM (≈ 0.194 µg/mL)
- MIC ([5]; Mycobacterium tuberculosis, M. tuberculosis H37Rv 27294, single well replicates, read-out: MIC): 0.098 µM (≈ 0.194 µg/mL)
- MIC ([5]; Mycobacterium tuberculosis, M. tuberculosis H37Rv strain, read-out: MIC Mtb H37Rv Mean ± SD): 0.1 µM (≈ 0.198 µg/mL)
- MIC ([5]; Mycobacterium tuberculosis, Mtb H37Rv (Supplementary Table 2), read-out: MIC Mtb): 0.1 µM (≈ 0.198 µg/mL)
- MIC ([5]; Mycobacterium tuberculosis, Mtb H37Rv, mean ± SD, n = 3 well replicates, read-out: MIC): 0.1 µM (≈ 0.198 µg/mL)
- MIC ([5]; Mycobacterium tuberculosis, Set 1, read-out: MIC (Mtb H37Rv) Set 1): 0.05 µM and 0.095 µg/mL
- MIC ([5]; Mycobacterium tuberculosis, Set 2, read-out: MIC (Mtb H37Rv) Set 2): 0.05 µM and 0.095 µg/mL
- MIC ([5]; Mycobacterium tuberculosis, Set 3, done at a different day than Set 1 and Set 2, read-out: MIC (Mtb H37Rv) Set 3): 0.05 µM and 0.095 µg/mL
- MIC ([5]; Mycobacterium tuberculosis, individual example (Supplementary Table 11), read-out: MIC Mtb H37Rv): 0.05 µM and 0.1 µg/mL
- MIC ([5]; Mycobacterium tuberculosis, individual measurements (source data), read-out: Mtb MIC): 0.097 µM (≈ 0.192 µg/mL)
- MIC ([5]; Mycobacterium tuberculosis, mean of 3 experiments +/- SD, unit taken from the sets above in the same table, read-out: MIC data (Mtb H37Rv) (+/- SD)): 0.05 µM and 0.1 µg/mL
- MIC ([5]; Mycobacterium tuberculosis, single determinations, read-out: Mtb MIC): 0.097 µM (≈ 0.192 µg/mL)
- MIC ([5]; Mycobacterium tuberculosis, value of the earlier manuscript version quoted in the peer review file, read-out: inhibition of the Mtb growth (MIC)): 0.097 µM (≈ 0.192 µg/mL)
- MIC ([5]; individual measurements (source data), read-out: Mtb MIC): 0.097 µM (≈ 0.192 µg/mL)
- MIC (Salmonella typhimurium; Gram-Negative Bacteria, replicates 1-3, listed as 12 (UdSBI-4377)): >50 µM
- MIC (Salmonella typhimurium; Salmonella enterica, TYPHIMURIUM, Gram negative, n = 3 well replicates): > 50 µM
- MIC (Salmonella typhimurium; Salmonella enterica, TYPHIMURIUM, Gram-Negative Bacteria, replicates 1-3): > 99 µg/mL
